Like-named read-outs stand apart in the source and are kept apart here.
Target: BRAF V600E (Homo sapiens, UniProt P15056, V600E)
Assay: HiBiT cellular BRAF^V600E degradation assay
Assay type: cell-based
Conditions: for DC50: concentration at which 50% of total cellular BRAF^V600E is degraded; for Emax: read-out: HiBit 24 h Emax
[1] = A375.10 cells, 24 h, residual protein remaining in the cell

Sequence of BRAF V600E (P15056 whole entry V600E): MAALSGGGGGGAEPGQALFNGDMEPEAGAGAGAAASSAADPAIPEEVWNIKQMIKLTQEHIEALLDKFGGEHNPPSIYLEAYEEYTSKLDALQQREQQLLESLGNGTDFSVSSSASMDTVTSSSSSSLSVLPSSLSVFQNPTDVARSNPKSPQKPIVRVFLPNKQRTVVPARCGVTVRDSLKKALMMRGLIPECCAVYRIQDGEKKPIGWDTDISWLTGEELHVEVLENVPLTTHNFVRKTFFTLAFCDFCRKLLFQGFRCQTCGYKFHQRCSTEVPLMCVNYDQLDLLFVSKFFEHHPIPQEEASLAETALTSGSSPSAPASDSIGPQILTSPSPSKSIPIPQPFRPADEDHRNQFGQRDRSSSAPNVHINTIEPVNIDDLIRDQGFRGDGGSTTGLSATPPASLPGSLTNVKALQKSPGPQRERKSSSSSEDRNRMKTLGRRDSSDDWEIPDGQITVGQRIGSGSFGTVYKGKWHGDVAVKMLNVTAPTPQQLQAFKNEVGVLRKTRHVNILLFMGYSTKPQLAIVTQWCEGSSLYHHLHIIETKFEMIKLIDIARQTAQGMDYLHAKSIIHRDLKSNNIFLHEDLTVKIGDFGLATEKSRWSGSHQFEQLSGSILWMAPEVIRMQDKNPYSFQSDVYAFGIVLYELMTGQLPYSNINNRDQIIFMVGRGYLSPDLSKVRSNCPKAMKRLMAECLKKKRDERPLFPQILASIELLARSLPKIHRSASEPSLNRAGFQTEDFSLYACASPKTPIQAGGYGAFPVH

| Structure (SMILES) | DC50 (A375.10 cells, 24 h) | Emax [1] | Emax |
| --- | --- | --- | --- |
| CCN(C)S(=O)(=O)Nc1ccc(F)c(Oc2ccc3ncn(C4CCC5(CCN(C(=O)CN6CCC(c7ccc(NC8CCC(=O)NC8=O)cc7F)CC6)CC5)C4)c(=O)c3c2)c1C#N (centres unmarked) [Example 28, 6-[2-cyano-3-[[ethyl(methyl)sulfamoyl]amino]-6-fluorophenoxy]-3-[8-[2-[4-[4-[(2,6-dioxopiperidin-3-yl)amino]-2-fluorophenyl]piperidin-1-yl]acetyl]-8-azaspiro[4.5]decan-3-yl]-4-oxoquinazoline] | 22.9 nM | 10.2% | – |
| CCN(C)S(=O)(=O)Nc1ccc(F)c(Oc2ccc3ncc(C4COC5(CCN(C(=O)CN6CCC(c7ccc(NC8CCC(=O)NC8=O)cc7F)CC6)CC5)C4)nc3c2)c1C#N (centres unmarked) [Example 221, 3-[7-[2-cyano-3-[[ethyl(methyl)sulfamoyl]amino]-6-fluorophenoxy]quinoxalin-2-yl]-8-[2-[4-[4-[(2,6-dioxopiperidin-3-yl)amino]-2-fluorophenyl]piperidin-1-yl]acetyl]-1-oxa-8-azaspiro[4.5]decane] | 30.5 nM | 10.3% | – |
| CCN(C)S(=O)(=O)Nc1ccc(F)c(Oc2ccc3ncn(C4CCOC5(CCN(C(=O)CN6CCC(c7ccc(NC8CCC(=O)NC8=O)cc7F)CC6)CC5)C4)c(=O)c3c2)c1C#N (centres unmarked) [Example 29, 4-[6-[2-cyano-3-[[ethyl(methyl)sulfamoyl]amino]-6-fluorophenoxy]-4-oxoquinazolin-3-yl]-9-[2-[4-[4-[(2,6-dioxopiperidin-3-yl)amino]-2-fluorophenyl]piperidin-1-yl]acetyl]-1-oxa-9-azaspiro[5.5]undecane] | 33.7 nM | 12.1% | – |
| CCN(C)S(=O)(=O)Nc1ccc(F)c(Oc2ccc3ncn(C(C)CCC4CCN(C(=O)CN5CCC(c6ccc(NC7CCC(=O)NC7=O)cc6F)CC5)CC4)c(=O)c3c2)c1C#N (centres unmarked) [Example 10, 6-[2-cyano-3-[[ethyl(methyl)sulfamoyl]amino]-6-fluorophenoxy]-3-[4-[1-[2-[4-[4-[(2,6-dioxopiperidin-3-yl)amino]-2-fluorophenyl]piperidin-1-yl]acetyl]piperidin-4-yl]butan-2-yl]-4-oxoquinazoline] | 41.9 nM | 12.6% | – |
| CCN(C)S(=O)(=O)Nc1ccc(F)c(Oc2ccc3ncn(CC(C)CC4CCN(C(=O)CN5CCC(c6ccc(NC7CCC(=O)NC7=O)cc6F)CC5)CC4)c(=O)c3c2)c1C#N (centres unmarked) [Example 14, 6-[2-cyano-3-[[ethyl(methyl)sulfamoyl]amino]-6-fluorophenoxy]-3-[3-[1-[2-[4-[4-[(2,6-dioxopiperidin-3-yl)amino]-2-fluorophenyl]piperidin-1-yl]acetyl]piperidin-4-yl]-2-methylpropyl]-4-oxoquinazoline] | 12.5 nM | – | 8.11% |
| CCN(C)S(=O)(=O)Nc1ccc(F)c(Oc2ccc3ncn([C@H]4COC5(CCN(C(=O)CN6CCC(c7ccc(NC8CCC(=O)NC8=O)cc7F)CC6)CC5)C4)c(=O)c3c2F)c1C#N (stereo partly drawn) [Example 72, (3R)-3-[6-[2-cyano-3-[[ethyl(methyl)sulfamoyl]amino]-6-fluorophenoxy]-5-fluoro-4-oxoquinazolin-3-yl]-8-[2-[4-[4-[(2,6-dioxopiperidin-3-yl)amino]-2-fluorophenyl]piperidin-1-yl]acetyl]-1-oxa-8-azaspiro[4.5]decane] | 39.9 nM | 8.63% | – |
| Cn1nc(N2CCC(=O)NC2=O)c2cc(F)c(N3CCC(O)(CC(=O)N4CCC5(CC4)C[C@@H](n4cnc6ccc(Oc7c(F)ccc(NS(=O)(=O)N8CC[C@@H](F)C8)c7C#N)cc6c4=O)CO5)CC3)cc21 [Example 190, (3R)—N-[2-cyano-3-[3-[(3R)-8-[2-[1-[3-(2,4-dioxo-1,3-diazinan-1-yl)-5-fluoro-1-methylindazol-6-yl]-4-hydroxypiperidin-4-yl]acetyl]-1-oxa-8-azaspiro[4.5]decan-3-yl]-4-oxoquinazolin-6-yl]oxy-4-fluorophenyl]-3-fluoropyrrolidine-1-sulfonamide] | 39.3 nM | 24.7% | – |
| CCN(C)S(=O)(=O)Nc1ccc(F)c(Oc2ccc3ncn(-c4cnn(C5CCN(C(=O)CN6CCC(c7ccc8c(C9CCC(=O)NC9=O)nn(C)c8c7)CC6)CC5)c4)c(=O)c3c2)c1C#N (centres unmarked) [Example 146, 6-[2-cyano-3-[[ethyl(methyl)sulfamoyl]amino]-6-fluorophenoxy]-3-[1-[1-[2-[4-[3-(2,6-dioxopiperidin-3-yl)-1-methylindazol-6-yl]piperidin-1-yl]acetyl]piperidin-4-yl]pyrazol-4-yl]-4-oxoquinazoline] | 22.2 nM | 16% | – |
| CCN(C)S(=O)(=O)Nc1ccc(F)c(Oc2ccc3ncn(C4COC5(CCN(C(=O)CN6CCC(c7ccc(NC8CCC(=O)NC8=O)cc7F)CC6)CC5)C4)c(=O)c3c2C)c1C#N (centres unmarked) [Example 59, 3-[6-[2-cyano-3-[[ethyl(methyl)sulfamoyl]amino]-6-fluorophenoxy]-5-methyl-4-oxoquinazolin-3-yl]-8-[2-[4-[4-[(2,6-dioxopiperidin-3-yl)amino]-2-fluorophenyl]piperidin-1-yl]acetyl]-1-oxa-8-azaspiro[4.5]decane] | 56 nM | 10.4% | – |
| CCN(C)S(=O)(=O)Nc1ccc(F)c(Oc2ccc3ncn(C4COC5(CCN(C(=O)CN6CCC(c7ccc(NC8CCC(=O)NC8=O)cc7F)CC6)CC5)C4)c(=O)c3c2Cl)c1C#N (centres unmarked) [Example 71, 3-[5-chloro-6-[2-cyano-3-[[ethyl(methyl)sulfamoyl]amino]-6-fluorophenoxy]-4-oxoquinazolin-3-yl]-8-[2-[4-[4-[(2,6-dioxopiperidin-3-yl)amino]-2-fluorophenyl]piperidin-1-yl]acetyl]-1-oxa-8-azaspiro[4.5]decane] | 37.6 nM | 10.5% | – |
| CCN(C)S(=O)(=O)Nc1ccc(F)c(Oc2ccc3ncn([C@H]4COC5(CCN(C(=O)CN6CCC(c7ccc(NC8CCC(=O)NC8=O)cc7F)CC6)CC5)C4)c(=O)c3c2Cl)c1C#N (single isomer, unassigned) [Example 77] | 31.8 nM | 9.51% | – |
| CCN(C)S(=O)(=O)Nc1ccc(F)c(Oc2ccc3ncn(-c4ccc(N5CCN(C(=O)CN6CCC(c7ccc(N[C@H]8CCC(=O)NC8=O)cc7F)CC6)CC5)nc4)c(=O)c3c2)c1C#N [Example 94, 6-[2-cyano-3-[[ethyl(methyl)sulfamoyl]amino]-6-fluorophenoxy]-3-[6-[4-[2-[4-[4-[[(3S)-2,6-dioxopiperidin-3-yl]amino]-2-fluorophenyl]piperidin-1-yl]acetyl]piperazin-1-yl]pyridin-3-yl]-4-oxoquinazoline] | 21.5 nM | 10.5% | – |

Continued, in another order:

| DC50 (A375.10 cells, 24 h) | Emax [1] | Structure (SMILES) | Emax |
| --- | --- | --- | --- |
| 17.3 nM | 14.5% | CCN(C)S(=O)(=O)Nc1ccc(F)c(Oc2ccc3ncn([C@H]4CCC5(CCN(C(=O)CN6CCN(c7cc8c(cc7F)c(N7CCC(=O)NC7=O)nn8C)CC6)CC5)C4)c(=O)c3c2)c1C#N [Example 162, 6-[2-cyano-3-[[ethyl(methyl)sulfamoyl]amino]-6-fluorophenoxy]-3-[(3S)-8-[2-[4-[3-(2,4-dioxo-1,3-diazinan-1-yl)-5-fluoro-1-methylindazol-6-yl]piperazin-1-yl]acetyl]-8-azaspiro [4.5]decan-3-yl]-4-oxoquinazoline] | – |
| 15.8 nM | 11% | CCN(C)S(=O)(=O)Nc1ccc(F)c(Oc2ccc3ncn(-c4ccc(N5CCN(C(=O)CN6CCC(c7ccc(NC8CCC(=O)NC8=O)cc7F)CC6)CC5)nc4)c(=O)c3c2)c1C#N (centres unmarked) [Example 85, 6-[2-cyano-3-[[ethyl(methyl)sulfamoyl]amino]-6-fluorophenoxy]-3-[6-[4-[2-[4-[4-[(2,6-dioxopiperidin-3-yl)amino]-2-fluorophenyl]piperidin-1-yl]acetyl]piperazin-1-yl]pyridin-3-yl]-4-oxoquinazoline] | – |
| 8.33 nM | 9.6% | N#Cc1c(NS(=O)(=O)C2CC2)ccc(F)c1Oc1ccc2ncn(-c3cnc(N4CCN(C(=O)CN5CCC(c6ccc(N[C@H]7CCC(=O)NC7=O)cc6F)CC5)CC4)nc3)c(=O)c2c1 [Example 114, N-[2-cyano-3-[3-[2-[4-[2-[4-[4-[[(3S)-2,6-dioxopiperidin-3-yl]amino]-2-fluorophenyl]piperidin-1-yl]acetyl]piperazin-1-yl]pyrimidin-5-yl]-4-oxoquinazolin-6-yl]oxy-4-fluorophenyl]cyclopropanesulfonamide] | – |
| 20.7 nM | 8.95% | CN(C1CC1)S(=O)(=O)Nc1ccc(F)c(Oc2ccc3ncn(-c4cnc(N5CCN(C(=O)CN6CCC(c7ccc(N[C@H]8CCC(=O)NC8=O)cc7F)CC6)CC5)nc4)c(=O)c3c2)c1C#N [Example 127, 6-[2-cyano-3-[[cyclopropyl(methyl)sulfamoyl]amino]-6-fluorophenoxy]-3-[2-[4-[2-[4-[4-[[(3S)-2,6-dioxopiperidin-3-yl]amino]-2-fluorophenyl]piperidin-1-yl]acetyl]piperazin-1-yl]pyrimidin-5-yl]-4-oxoquinazoline] | – |
| 16.1 nM | 9.27% | CCN(C)S(=O)(=O)Nc1ccc(F)c(Oc2ccc3ncn([C@@H]4CCC5(CCN(C(=O)CN6CCC(c7ccc(NC8CCC(=O)NC8=O)cc7F)CC6)CC5)C4)c(=O)c3c2)c1C#N (single isomer, unassigned) [Example 41] | – |
| 19.5 nM | 9.91% | N#Cc1c(NS(=O)(=O)N2C[C@H]3C[C@H]3C2)ccc(F)c1Oc1ccc2ncn(-c3cnc(N4CCN(C(=O)CN5CCC(c6ccc(N[C@H]7CCC(=O)NC7=O)cc6F)CC5)CC4)nc3)c(=O)c2c1 [Example 128, (1S,5R)—N-[2-cyano-3-[3-[2-[4-[2-[4-[4-[[(3S)-2,6-dioxopiperidin-3-yl]amino]-2-fluorophenyl]piperidin-1-yl]acetyl]piperazin-1-yl]pyrimidin-5-yl]-4-oxoquinazolin-6-yl]oxy-4-fluorophenyl]-3-azabicyclo[3.1.0]hexane-3-sulfonamide] | – |
| 11.9 nM | 31.5% | CCN(C)S(=O)(=O)Nc1ccc(F)c(Oc2ccc3ncn([C@H]4COC5(CCN(C(=O)C[C@H]6CC[C@H](c7ccc8c(C9CCC(=O)NC9=O)nn(C)c8c7)CC6)CC5)C4)c(=O)c3c2)c1C#N (single isomer, unassigned) [Example 169] | – |

Source: patent US12486253B2, “Therapeutics for the degradation of mutant BRAF” (C4 THERAPEUTICS, INC., priority 2021, dated 2025)
